From ChEMBL document CHEMBL3991601, “The target landscape of clinical kinase drugs” (Science, 2017) come the findings set out here.

The source made the active and inactive calls. Cut-off read from the data, not from the text of the source, for most assays here: actives have a measured Kd and inactives only a lower limit. Some results are limits rather than exact numbers.

For test [1], the target named is Tyrosine-protein kinase CSK (Homo sapiens, UniProt P41240).
Test [2] has as its target Serine/threonine-protein kinase pim-1 (Homo sapiens, UniProt P11309).
Test [3] deals with Tyrosine-protein kinase ABL1 (Homo sapiens, UniProt P00519).
Sequence of Tyrosine-protein kinase ABL1 (P00519 whole entry): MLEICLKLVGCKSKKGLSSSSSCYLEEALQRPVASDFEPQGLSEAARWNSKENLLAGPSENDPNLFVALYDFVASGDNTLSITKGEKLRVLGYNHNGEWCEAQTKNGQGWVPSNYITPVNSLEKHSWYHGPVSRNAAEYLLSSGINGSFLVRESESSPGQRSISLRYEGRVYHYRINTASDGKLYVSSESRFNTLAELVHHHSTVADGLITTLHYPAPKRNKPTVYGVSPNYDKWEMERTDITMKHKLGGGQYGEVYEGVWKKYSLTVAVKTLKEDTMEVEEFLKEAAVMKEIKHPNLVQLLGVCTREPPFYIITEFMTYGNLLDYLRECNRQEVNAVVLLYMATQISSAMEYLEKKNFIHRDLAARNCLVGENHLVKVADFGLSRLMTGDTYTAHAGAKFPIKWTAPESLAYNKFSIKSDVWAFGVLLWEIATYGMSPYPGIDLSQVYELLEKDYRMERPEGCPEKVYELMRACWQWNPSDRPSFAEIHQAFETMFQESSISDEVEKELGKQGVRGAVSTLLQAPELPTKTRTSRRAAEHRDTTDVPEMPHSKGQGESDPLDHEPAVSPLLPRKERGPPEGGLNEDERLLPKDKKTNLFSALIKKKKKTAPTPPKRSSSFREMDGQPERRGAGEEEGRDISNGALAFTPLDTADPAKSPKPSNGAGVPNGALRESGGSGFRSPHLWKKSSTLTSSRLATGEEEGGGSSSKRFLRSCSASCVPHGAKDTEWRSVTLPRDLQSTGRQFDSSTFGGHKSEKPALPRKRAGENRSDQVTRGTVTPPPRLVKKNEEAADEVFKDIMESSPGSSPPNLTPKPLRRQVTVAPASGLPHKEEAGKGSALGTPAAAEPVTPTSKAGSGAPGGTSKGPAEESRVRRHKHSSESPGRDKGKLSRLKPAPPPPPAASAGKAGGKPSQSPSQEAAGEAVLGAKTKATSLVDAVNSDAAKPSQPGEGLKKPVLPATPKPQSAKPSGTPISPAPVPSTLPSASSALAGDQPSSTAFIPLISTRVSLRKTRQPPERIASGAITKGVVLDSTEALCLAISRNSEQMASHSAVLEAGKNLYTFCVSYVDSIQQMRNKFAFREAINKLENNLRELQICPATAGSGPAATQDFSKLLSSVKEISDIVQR
The target of a further test is T1, Septin-9 (Homo sapiens, UniProt Q9UHD8).
T1 sequence (Q9UHD8 whole entry): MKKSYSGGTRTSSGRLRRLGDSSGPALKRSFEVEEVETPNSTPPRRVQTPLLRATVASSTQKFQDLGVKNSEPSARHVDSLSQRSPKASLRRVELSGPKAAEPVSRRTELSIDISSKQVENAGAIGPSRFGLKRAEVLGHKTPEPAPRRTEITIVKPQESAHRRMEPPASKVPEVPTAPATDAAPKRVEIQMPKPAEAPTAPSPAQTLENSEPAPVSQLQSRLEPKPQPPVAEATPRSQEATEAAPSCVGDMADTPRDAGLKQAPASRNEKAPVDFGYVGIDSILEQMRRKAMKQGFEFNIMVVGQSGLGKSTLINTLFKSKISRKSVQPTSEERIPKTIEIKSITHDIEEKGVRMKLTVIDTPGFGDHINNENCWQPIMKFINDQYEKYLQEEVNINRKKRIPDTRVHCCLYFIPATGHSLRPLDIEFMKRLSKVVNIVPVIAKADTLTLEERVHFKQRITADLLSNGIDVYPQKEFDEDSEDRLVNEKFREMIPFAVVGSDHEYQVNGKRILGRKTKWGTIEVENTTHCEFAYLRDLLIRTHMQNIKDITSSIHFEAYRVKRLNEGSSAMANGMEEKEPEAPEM

The target of test [4] is Glycogen synthase kinase-3 alpha (Homo sapiens, UniProt P49840).
Sequence of Glycogen synthase kinase-3 alpha (P49840 whole entry): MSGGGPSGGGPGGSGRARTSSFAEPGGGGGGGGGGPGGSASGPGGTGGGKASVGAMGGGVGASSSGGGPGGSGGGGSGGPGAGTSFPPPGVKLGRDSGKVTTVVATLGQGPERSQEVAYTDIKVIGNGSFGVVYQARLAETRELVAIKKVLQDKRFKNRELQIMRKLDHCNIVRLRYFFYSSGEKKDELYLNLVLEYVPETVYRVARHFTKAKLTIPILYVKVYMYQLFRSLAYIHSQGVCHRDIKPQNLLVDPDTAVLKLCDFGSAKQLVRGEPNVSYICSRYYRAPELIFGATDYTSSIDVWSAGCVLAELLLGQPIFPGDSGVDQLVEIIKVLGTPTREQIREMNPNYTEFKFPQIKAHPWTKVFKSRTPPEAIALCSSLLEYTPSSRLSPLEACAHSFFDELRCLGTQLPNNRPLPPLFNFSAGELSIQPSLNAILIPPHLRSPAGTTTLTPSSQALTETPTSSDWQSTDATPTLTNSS
Test [5] has as its target Dual specificity tyrosine-phosphorylation-regulated kinase 1A (Homo sapiens, UniProt Q13627).
Test [6] has as its target Tyrosine-protein kinase Lyn (Homo sapiens, UniProt P07948).
Test [7] has as its target T2, Mitogen-activated protein kinase kinase kinase 6 (Homo sapiens, UniProt O95382).
T2 sequence (O95382 whole entry): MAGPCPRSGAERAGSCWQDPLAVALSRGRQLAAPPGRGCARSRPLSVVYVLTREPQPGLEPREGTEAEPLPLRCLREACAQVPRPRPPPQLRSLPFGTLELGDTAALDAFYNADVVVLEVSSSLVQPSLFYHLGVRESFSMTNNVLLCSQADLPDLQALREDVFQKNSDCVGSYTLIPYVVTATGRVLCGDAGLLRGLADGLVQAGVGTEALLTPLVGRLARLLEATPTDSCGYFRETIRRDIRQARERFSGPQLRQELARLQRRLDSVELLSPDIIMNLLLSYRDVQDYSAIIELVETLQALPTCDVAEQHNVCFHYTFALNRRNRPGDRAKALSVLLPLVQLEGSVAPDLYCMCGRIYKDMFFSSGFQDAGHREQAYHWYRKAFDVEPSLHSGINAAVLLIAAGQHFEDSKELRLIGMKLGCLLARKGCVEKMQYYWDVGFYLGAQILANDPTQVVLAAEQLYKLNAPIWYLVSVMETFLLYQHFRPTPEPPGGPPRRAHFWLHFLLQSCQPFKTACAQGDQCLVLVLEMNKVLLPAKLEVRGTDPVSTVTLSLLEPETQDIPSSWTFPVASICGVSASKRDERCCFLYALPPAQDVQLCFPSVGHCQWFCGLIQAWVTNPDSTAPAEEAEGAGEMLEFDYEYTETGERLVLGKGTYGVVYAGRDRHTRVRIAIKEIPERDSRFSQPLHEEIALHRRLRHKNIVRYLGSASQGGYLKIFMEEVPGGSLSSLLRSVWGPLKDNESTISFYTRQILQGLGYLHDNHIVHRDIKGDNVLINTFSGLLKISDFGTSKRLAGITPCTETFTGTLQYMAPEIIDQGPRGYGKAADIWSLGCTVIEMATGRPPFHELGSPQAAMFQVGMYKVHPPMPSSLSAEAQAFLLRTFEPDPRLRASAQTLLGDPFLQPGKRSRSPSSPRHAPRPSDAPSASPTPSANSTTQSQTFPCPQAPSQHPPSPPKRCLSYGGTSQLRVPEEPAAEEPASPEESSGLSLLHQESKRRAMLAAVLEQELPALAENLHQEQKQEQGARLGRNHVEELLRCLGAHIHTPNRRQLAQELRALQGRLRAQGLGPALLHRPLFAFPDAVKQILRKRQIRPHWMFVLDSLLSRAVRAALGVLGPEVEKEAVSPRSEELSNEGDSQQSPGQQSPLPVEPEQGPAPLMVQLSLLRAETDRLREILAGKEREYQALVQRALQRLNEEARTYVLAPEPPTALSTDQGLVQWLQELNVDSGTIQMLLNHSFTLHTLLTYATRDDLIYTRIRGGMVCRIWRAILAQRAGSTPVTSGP

The target of test [8] is RAC-alpha serine/threonine-protein kinase (Homo sapiens, UniProt P31749).
Sequence of RAC-alpha serine/threonine-protein kinase (P31749 whole entry): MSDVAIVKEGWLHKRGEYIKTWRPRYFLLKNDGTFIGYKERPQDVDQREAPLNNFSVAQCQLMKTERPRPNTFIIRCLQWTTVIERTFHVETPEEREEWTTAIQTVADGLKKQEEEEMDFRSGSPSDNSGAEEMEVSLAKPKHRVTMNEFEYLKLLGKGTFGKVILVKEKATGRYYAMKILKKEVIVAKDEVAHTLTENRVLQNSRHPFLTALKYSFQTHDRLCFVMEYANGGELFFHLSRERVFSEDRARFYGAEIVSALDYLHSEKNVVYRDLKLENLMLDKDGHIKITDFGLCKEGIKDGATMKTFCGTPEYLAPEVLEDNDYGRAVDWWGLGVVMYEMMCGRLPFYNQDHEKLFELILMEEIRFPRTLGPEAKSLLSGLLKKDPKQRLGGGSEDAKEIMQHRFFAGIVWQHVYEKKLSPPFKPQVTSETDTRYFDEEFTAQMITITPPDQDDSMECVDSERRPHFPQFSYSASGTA
The target in a further test is Ephrin type-A receptor 5 (Homo sapiens, UniProt P54756).
Sequence of Ephrin type-A receptor 5 (P54756 whole entry): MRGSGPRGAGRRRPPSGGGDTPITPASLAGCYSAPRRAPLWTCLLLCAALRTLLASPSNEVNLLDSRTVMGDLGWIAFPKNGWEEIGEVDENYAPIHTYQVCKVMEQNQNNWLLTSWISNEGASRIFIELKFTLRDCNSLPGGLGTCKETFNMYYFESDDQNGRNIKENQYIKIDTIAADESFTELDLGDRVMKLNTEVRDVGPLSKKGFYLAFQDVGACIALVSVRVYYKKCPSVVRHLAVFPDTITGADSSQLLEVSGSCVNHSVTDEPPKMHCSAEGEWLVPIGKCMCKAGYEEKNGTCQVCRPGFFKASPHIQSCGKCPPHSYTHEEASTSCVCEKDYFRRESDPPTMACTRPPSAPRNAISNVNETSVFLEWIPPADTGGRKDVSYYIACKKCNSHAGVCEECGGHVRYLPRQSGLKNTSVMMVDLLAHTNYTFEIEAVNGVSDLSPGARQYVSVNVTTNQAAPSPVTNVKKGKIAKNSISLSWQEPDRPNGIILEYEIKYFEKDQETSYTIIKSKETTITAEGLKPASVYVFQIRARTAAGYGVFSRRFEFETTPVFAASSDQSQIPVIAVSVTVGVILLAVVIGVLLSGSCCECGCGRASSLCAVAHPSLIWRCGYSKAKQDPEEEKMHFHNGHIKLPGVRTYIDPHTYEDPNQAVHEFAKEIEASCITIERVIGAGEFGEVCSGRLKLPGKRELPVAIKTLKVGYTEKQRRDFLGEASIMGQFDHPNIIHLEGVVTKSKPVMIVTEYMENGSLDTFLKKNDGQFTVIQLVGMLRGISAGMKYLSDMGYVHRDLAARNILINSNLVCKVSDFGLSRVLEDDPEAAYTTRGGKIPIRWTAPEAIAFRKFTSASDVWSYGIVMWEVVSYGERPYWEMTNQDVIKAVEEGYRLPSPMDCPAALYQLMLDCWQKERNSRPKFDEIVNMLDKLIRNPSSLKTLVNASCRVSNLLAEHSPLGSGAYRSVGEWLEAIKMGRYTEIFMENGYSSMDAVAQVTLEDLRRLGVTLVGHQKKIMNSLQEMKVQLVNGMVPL
Note: in the data inactive means no Kd found up to 30 µM.

Sequence of Serine/threonine-protein kinase pim-1 (P11309 whole entry): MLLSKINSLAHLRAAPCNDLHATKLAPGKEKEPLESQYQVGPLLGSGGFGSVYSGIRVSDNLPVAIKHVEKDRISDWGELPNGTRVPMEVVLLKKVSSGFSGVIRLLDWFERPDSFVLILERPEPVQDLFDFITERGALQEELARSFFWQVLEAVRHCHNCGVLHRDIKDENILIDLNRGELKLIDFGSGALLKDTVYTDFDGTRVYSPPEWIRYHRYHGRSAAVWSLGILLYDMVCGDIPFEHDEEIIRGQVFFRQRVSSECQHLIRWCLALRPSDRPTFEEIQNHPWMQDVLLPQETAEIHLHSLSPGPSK
Sequence of Tyrosine-protein kinase CSK (P41240 whole entry): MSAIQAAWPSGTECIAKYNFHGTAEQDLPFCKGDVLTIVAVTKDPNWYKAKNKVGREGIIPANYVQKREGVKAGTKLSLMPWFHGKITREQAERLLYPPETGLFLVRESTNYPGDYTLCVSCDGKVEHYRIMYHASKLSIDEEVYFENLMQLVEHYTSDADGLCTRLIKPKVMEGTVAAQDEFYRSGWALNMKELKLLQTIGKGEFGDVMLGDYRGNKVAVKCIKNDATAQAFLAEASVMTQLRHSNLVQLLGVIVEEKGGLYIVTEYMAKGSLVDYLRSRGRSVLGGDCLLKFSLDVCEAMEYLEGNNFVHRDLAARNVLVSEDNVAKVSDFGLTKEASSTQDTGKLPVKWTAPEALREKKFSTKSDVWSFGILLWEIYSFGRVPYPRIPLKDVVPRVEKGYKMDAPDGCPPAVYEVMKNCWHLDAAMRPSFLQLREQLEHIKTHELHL
Sequence of Tyrosine-protein kinase Lyn (P07948 whole entry): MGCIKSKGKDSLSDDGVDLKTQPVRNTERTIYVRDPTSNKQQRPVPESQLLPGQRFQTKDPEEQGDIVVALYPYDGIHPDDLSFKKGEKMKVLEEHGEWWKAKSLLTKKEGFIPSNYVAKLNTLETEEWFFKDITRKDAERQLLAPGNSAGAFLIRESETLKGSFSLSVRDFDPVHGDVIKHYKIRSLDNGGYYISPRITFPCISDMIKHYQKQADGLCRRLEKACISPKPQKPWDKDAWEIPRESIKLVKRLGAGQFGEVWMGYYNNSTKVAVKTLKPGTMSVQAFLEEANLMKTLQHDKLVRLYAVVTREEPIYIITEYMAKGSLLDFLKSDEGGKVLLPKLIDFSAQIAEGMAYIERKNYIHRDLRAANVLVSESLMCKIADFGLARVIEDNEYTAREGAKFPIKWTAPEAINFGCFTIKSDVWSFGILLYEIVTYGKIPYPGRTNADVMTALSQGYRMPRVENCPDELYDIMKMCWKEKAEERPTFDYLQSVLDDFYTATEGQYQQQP

Take `COc1cc(N2CCC(N3CCN(C)CC3)CC2)ccc1Nc1ncnc(Nc2ccccc2S(=O)(=O)C(C)C)n1` [ASP-3026]: the Kd – broadly, the free concentration of one partner at which half of the binding sites on the other are occupied at equilibrium, for simple one-to-one binding – was > 30 µM (inactive) in test [1]; > 30 µM (inactive) in test [2]; 5.26 µM (active) in test [3]; > 30 µM (inactive) at Septin-9; > 30 µM (inactive) in test [4]; > 30 µM (inactive) in test [5]. For the same compound, the Kd (in [6]; in [7]; in test [8]; at Ephrin type-A receptor 5) was > 30 µM (inactive) each time.

`CC(=O)Nc1cccc(-n2c(=O)n(C3CC3)c(=O)c3c(Nc4ccc(I)cc4F)n(C)c(=O)c(C)c32)c1` [TRAMETINIB]: the Kd (in test [1]; in test [2]; in test [3]; at Septin-9; in test [4]; in [5]) was > 30 µM (inactive) in each case. Moreover, the Kd (in [6]; in test [7]; in [8]; at Ephrin type-A receptor 5) was > 30 µM (inactive) throughout.

With `CCCS(=O)(=O)Nc1ccc(F)c(C(=O)c2c[nH]c3ncc(-c4ccc(Cl)cc4)cc23)c1F` [VEMURAFENIB], the Kd (in test [1]; in test [2]; in test [3]; on Septin-9; in test [4]; in [5]) was > 30 µM (inactive) throughout. For the same compound, the Kd (in test [6]; in [7]; in [8]; on Ephrin type-A receptor 5) was > 30 µM (inactive) throughout.

`COC(=O)[C@@]1(O)C[C@H]2O[C@]1(C)n1c3ccccc3c3c4c(c5c6ccccc6n2c5c31)C(=O)NC4` [K-252A]: the Kd is > 30 µM (inactive) in test [1]; > 30 µM (inactive) in test [2]; > 30 µM (inactive) in [3]; > 30 µM (inactive) at Septin-9; > 30 µM (inactive) in test [4]; 4.85 µM (active) in test [5]. Besides, the Kd in test [6] is > 30 µM (inactive); in test [7] it was 0.335 µM (active); in test [8] it was > 30 µM (inactive); on Ephrin type-A receptor 5 it was > 30 µM (inactive).

As to `Cn1cc(-c2ccc3nnc(C(F)(F)c4ccc5ncccc5c4)n3n2)cn1` [JNJ-38877605], the Kd (in [1]; in [2]; in test [3]; on Septin-9; in test [4]; in [5]) was > 30 µM (inactive) in each case. The Kd (in test [6]; in test [7]; in test [8]; on Ephrin type-A receptor 5) was > 30 µM (inactive) in each case.

On to `Cc1cc([C@@H](C)Nc2ccccc2C(=O)O)c2nc(N3CCOCC3)cc(=O)n2c1` [AZD-6482], for which the Kd (in [1]; in test [2]; in [3]; at Septin-9; in test [4]; in test [5]) was > 30 µM (inactive) in each case. Moreover, the Kd (in test [6]; in [7]; in [8]; at Ephrin type-A receptor 5) was > 30 µM (inactive) each time.

With `COc1cc(CCc2cc(NC(=O)c3ccc(N4C[C@@H](C)N[C@@H](C)C4)cc3)n[nH]2)cc(OC)c1` [AZD-4547], the Kd (in test [1]; in test [2]; in [3]; at Septin-9; in test [4]; in [5]) was > 30 µM (inactive) in each case. The Kd (in test [6]; in test [7]; in test [8]; on Ephrin type-A receptor 5) was > 30 µM (inactive) in each case.

On to `CNC(=O)c1ccc(-c2cnc3ncc(Cc4ccc5ncccc5c4)n3n2)cc1F` [CAPMATINIB], for which the Kd (in [1]; in test [2]; in [3]; at Septin-9; in test [4]; in test [5]) was > 30 µM (inactive) in each case. Also, the Kd (in test [6]; in [7]; in test [8]; at Ephrin type-A receptor 5) was > 30 µM (inactive) in each case.

Consider `CN1CC[C@@H](c2c(O)cc(O)c3c(=O)cc(-c4ccccc4Cl)oc23)[C@@H]1CO`, for which the Kd (in test [1]; in [2]; in [3]; on Septin-9; in test [4]; in [5]) was > 30 µM (inactive) each time. In addition, the Kd (in test [6]; in test [7]; in [8]; at Ephrin type-A receptor 5) was > 30 µM (inactive) each time.

Take `CCN1CCN(Cc2ccc(-c3cc4c(N[C@H](C)c5ccccc5)ncnc4[nH]3)cc2)CC1` [AEE-788]: the Kd was > 30 µM (inactive) in [1]; > 30 µM (inactive) in test [2]; 1.09 µM (active) in test [3]; > 30 µM (inactive) at Septin-9; > 30 µM (inactive) in test [4]; > 30 µM (inactive) in test [5]. The Kd (in test [6]; in [7]; in test [8]; at Ephrin type-A receptor 5) was > 30 µM (inactive) throughout.

For the compound `C[C@@H]1CN(Cc2ccc(F)cc2)[C@@H](C)CN1C(=O)c1cc2c(C(=O)C(=O)N(C)C)cn(C)c2cc1Cl` [TALMAPIMOD], the Kd (in test [1]; in test [2]; in [3]; on Septin-9; in test [4]; in test [5]) was > 30 µM (inactive) each time. In addition, the Kd (in test [6]; in test [7]; in test [8]; on Ephrin type-A receptor 5) was > 30 µM (inactive) throughout.

In the case of `O=C(Nc1ccc(-c2ccnc(Nc3ccc(N4CCOCC4)cc3)n2)cc1)C1CCCN1` (stereo not given) [XL-019], the Kd (in test [1]; in test [2]; in test [3]; on Septin-9; in [4]; in test [5]) was > 30 µM (inactive) each time. Also, the Kd (in test [6]; in test [7]; in [8]; on Ephrin type-A receptor 5) was > 30 µM (inactive) each time.
